Experimental findings from patent publication US20080242688A1, “Method 741” (ASTRAZENECA AB, priority 2007, published 2008) are described below.

Data set [1] can be described thus: Pharmacological activity of metabolite. On the procedure: Pyridinyl methylation of AZD0328 was a unique polar metabolite (M2) observed in dog hepatocytes. Other minor hydroxylation/oxidation and glucuronide conjugation products were detected in monkey, dog, rat, and guinea pig hepatocyte incubations and mini-pig hepatic microsome incubations. […] Analysis of plasma and urine samples from either orally or iv dosed rats confirmed N-oxide product of AZD0328 was a main product in the excretion and circulation. The percentage of AZD0328 N-oxide in the plasma from male rats was much higher than from females.

A further data set can be described thus: Rat QWBA study. The class given is in vivo. The conditions noted are these: single oral dose. On the procedure:
AZD0328 is a low protein binding molecule across species including human (<15%) across the concentration range 21.6 to […] (0.1 to 100 μM). In most species, the binding was concentration and gender independent. […] [14C]-AZD0328-derived radioactivity was rapidly distributed to the organs and tissues with high levels of radioactivity associated with the contents of the GI tract and the major excretion organs, including kidney and liver. The radioactivity declined rapidly and by 168 h postdose radioactivity levels were not detectable in most tissues, with the exception of a few ocular tissues and nasal turbinates. […] Notable association of [^14C]-AZD0328-related radioactivity with the melanin-containing tissues was observed, with measurable radioactivity still present in the ocular tissues at 216 h postdose. [14C]-AZD0328-derived radioactivity crossed the placenta.

Data set [2] is described as follows: Mass balance of [14C]-AZD0328 in rats. The class given is in vivo, rat. How it is done:
In the mass balance study conducted in fed rats, a Tmax of 0.5 h to 1 h was observed following single and multiple oral doses (solution). The bioavailability of AZD0328 (total radioactivity) in this study was >90%. […] Generally speaking, the elimination was complete within the 24-hour interval at the dose levels tested.
Pharmacokinetics and mass balance of [^14C]-AZD0328 were investigated in rats. The excretion of [^14C]-AZD0328-derived radioactivity in rats was mainly through the kidney. Over the course of the study, radioactivity recovered in urine and feces accounted for approximately 85% and 8%, respectively.

In the case of `[O-][N+]12CCC(CC1)C1(Cc3cccnc3O1)C2` (stereo not shown) [quinuclidinyl-N-oxide of AZD0328], in data set [1], the “pharmacological activity of metabolite” value was “pharmacological inactive”.

As to `c1cnc2c(c1)C[C@@]1(CN3CCC1CC3)O2` [[^14C]-AZD0328], in “Rat QWBA study”, the “time of maximum blood and plasma concentrations of radioactivity” value turned out to be 0.5 h. For the same compound, in data set [2], the “radioactivity recovered in feces” value is given as approximately 8% and the “radioactivity recovered in urine” value is on record as “approximately 85%”.
